Measured values: PubChem BioAssay AID1963982 (Molecular Pharmacology Branch, DTP, NCI, 2024)

System: 313798-341-R-J2-PDC spheroids, viability
Test: Anticancer human tumor 313798-341-R-J2-PDC patient-derived cervical squamous cell carcinoma cell line growth inhibition [PI3K]
Conditions: spheroids with HUVEC and MSC; for IC50: curve of first compound; for viability, T/C: stronger effect = lower value
Summary of the method: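 Agents were dosed from a top concentration near clinical Cmax (otherwise 10 microM) in half-log decrements, alone or combined with PI3K inhibitors. The spheroids contain tumor cells plus endothelial (HUVEC) and MSC stroma; viability is measured.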

[1] = second compound 0.0316 µM, first compound 0.0316 µM
[2] = second compound 0.0316 µM, first compound 0.1 µM
[3] = second compound 0.0316 µM, first compound 0.316 µM
[4] = second compound 0.0316 µM, first compound 1 µM
[5] = second compound 0.0316 µM, first compound 3.16 µM
[6] = second compound 0.0316 µM, first compound 10 µM
[7] = second compound 0.1 µM, first compound 0.0316 µM
[8] = second compound 0.1 µM, first compound 0.1 µM
[9] = second compound 0.1 µM, first compound 0.316 µM
[10] = second compound 0.1 µM, first compound 1 µM
[11] = second compound 0.1 µM, first compound 3.16 µM
[12] = second compound 0.1 µM, first compound 10 µM
[13] = second compound 0.316 µM, first compound 0.0316 µM
[14] = second compound 0.316 µM, first compound 0.1 µM
[15] = second compound 0.316 µM, first compound 0.316 µM
[16] = second compound 0.316 µM, first compound 1 µM
[17] = second compound 0.316 µM, first compound 3.16 µM
[18] = second compound 0.316 µM, first compound 10 µM
[19] = second compound 1 µM, first compound 0.0316 µM
[20] = second compound 1 µM, first compound 0.1 µM
[21] = second compound 1 µM, first compound 0.316 µM
[22] = second compound 1 µM, first compound 1 µM
[23] = second compound 1 µM, first compound 3.16 µM
[24] = second compound 1 µM, first compound 10 µM
[25] = second compound 3.16 µM, first compound 0.0316 µM
[26] = second compound 3.16 µM, first compound 0.1 µM
[27] = second compound 3.16 µM, first compound 0.316 µM
[28] = second compound 3.16 µM, first compound 1 µM
[29] = second compound 3.16 µM, first compound 3.16 µM
[30] = second compound 3.16 µM, first compound 10 µM
[31] = second compound 10 µM, first compound 0.0316 µM
[32] = second compound 10 µM, first compound 0.1 µM
[33] = second compound 10 µM, first compound 0.316 µM
[34] = second compound 10 µM, first compound 1 µM
[35] = second compound 10 µM, first compound 3.16 µM
[36] = second compound 10 µM, first compound 10 µM
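Also: spheroids exposed to compounds for seven days.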
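For viability, T/C in this document: 100% = DMSO vehicle control viability.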

`C=CC(=O)N1CCN(c2nc(=O)n(-c3c(C)ccnc3C(C)C)c3nc(-c4c(O)cccc4F)c(F)cc23)C(C)C1` (centres undefined) + CC(Nc1ncnc2nc[nH]c12)c1cc2cccc(Cl)c2c(=O)n1-c1ccccc1 was tested, and the IC50 (second compound 0.0316 µM) was > 10 µM, the IC50 (second compound 0.1 µM) was > 10 µM and the IC50 (second compound 0.316 µM) was > 10 µM. The IC50 (second compound 1 µM) was > 10 µM, the IC50 (second compound 3.16 µM) was > 10 µM and the IC50 (second compound 10 µM) was > 10 µM. It also gave a viability, T/C [1] of 112%, a viability, T/C [2] of 102% and a viability, T/C [3] of 113%. The viability, T/C [4] was 100%, the viability, T/C [5] was 103% and the viability, T/C [6] was 94.9%. For the same compound, the viability, T/C [7] was 89.4%, the viability, T/C [8] was 96.2% and the viability, T/C [9] was 99.1%. It also gave a viability, T/C [10] of 99.8%, a viability, T/C [11] of 102% and a viability, T/C [12] of 102%. For the same compound, the viability, T/C [13] was 106%, the viability, T/C [14] was 91.5% and the viability, T/C [15] was 106%. It also gave a viability, T/C [16] of 98.1%, a viability, T/C [17] of 104% and a viability, T/C [18] of 92.9%. The viability, T/C [19] was 102%, the viability, T/C [20] was 95.4% and the viability, T/C [21] was 102%. The viability, T/C [22] was 90.3%, the viability, T/C [23] was 98.2% and the viability, T/C [24] was 102%. For the same compound, the viability, T/C [25] was 110%, the viability, T/C [26] was 94.1% and the viability, T/C [27] was 87.6%. For the same compound, the viability, T/C [28] was 99.5%, the viability, T/C [29] was 100% and the viability, T/C [30] was 91.9%. It also gave a viability, T/C [31] of 87.7%, a viability, T/C [32] of 85.2% and a viability, T/C [33] of 98.2%. For the same compound, the viability, T/C [34] was 84.1%, the viability, T/C [35] was 90.4% and the viability, T/C [36] was 78.3%.
For `Cn1nccc1Nc1nccc(-c2ccn(C(CO)c3ccc(Cl)c(F)c3)c(=O)c2)n1` (centres undefined) + CC(Nc1ncnc2nc[nH]c12)c1cc2cccc(Cl)c2c(=O)n1-c1ccccc1, the IC50 (second compound 0.0316 µM) was > 10 µM, the IC50 (second compound 0.1 µM) was > 10 µM and the IC50 (second compound 0.316 µM) was > 10 µM. For the same compound, the IC50 (second compound 1 µM) was > 10 µM, the IC50 (second compound 3.16 µM) was > 10 µM and the IC50 (second compound 10 µM) was > 10 µM. For the same compound, the viability, T/C [1] was 92.4%, the viability, T/C [2] was 94.5% and the viability, T/C [3] was 90.1%. The viability, T/C [4] was 99.1%, the viability, T/C [5] was 91.3% and the viability, T/C [6] was 95.1%. The viability, T/C [7] was 100%, the viability, T/C [8] was 108% and the viability, T/C [9] was 97.7%. The viability, T/C [10] was 104%, the viability, T/C [11] was 105% and the viability, T/C [12] was 94.2%. It also gave a viability, T/C [13] of 114%, a viability, T/C [14] of 95.7% and a viability, T/C [15] of 90.2%. It also gave a viability, T/C [16] of 95%, a viability, T/C [17] of 110% and a viability, T/C [18] of 101%. The viability, T/C [19] was 102%, the viability, T/C [20] was 85.4% and the viability, T/C [21] was 107%. For the same compound, the viability, T/C [22] was 98.9%, the viability, T/C [23] was 93.5% and the viability, T/C [24] was 94.1%. For the same compound, the viability, T/C [25] was 97.6%, the viability, T/C [26] was 96% and the viability, T/C [27] was 94.1%. It also gave a viability, T/C [28] of 87.7%, a viability, T/C [29] of 89.9% and a viability, T/C [30] of 90.6%. It also gave a viability, T/C [31] of 98.8%, a viability, T/C [32] of 75.3% and a viability, T/C [33] of 77.8%. The viability, T/C [34] was 78.7%, the viability, T/C [35] was 85.8% and the viability, T/C [36] was 73.8%.
